Experimental data from US9791449B2, “Ovarian cancer stem cells and methods of isolation and uses thereof” (THE GENERAL HOSPITAL CORPORATION, priority 2011, dated 2017).
“Also recorded” adds a separate entry of the source.

Experiments:
[1] = test system: ovarian cancer cells marked by CD44, CD24, and Epcam (3+); conditions: after treatment with chemotherapeutics; cited from earlier work
[2] = test system: MOVCAR-7 and MOVCAR-8 cell lines; experiment: qPCR of CDK inhibitor mRNAs relative to GAPDH; assay type: cell-based, mouse
Experimental: Total microRNA (miRNAs) were extracted from the different cell lines HOSE-4, HOSE-6, OVCAR-5, OVCAR-3, OVCAR-8, IGROV-1, and SKOV-3 using the miRNeasy Mini kit (QIAGEN) and reverse-transcribed to cDNAs using the TaqMan MicroRNA Reverse Transcription Kit (Applied Biosystems). Levels of Let-7c miRNAs were measured by quantitative PCR using TagMan Let-7 probes (Applied Biosystems; part no. 4373167) with U47 RNA as internal standard for normalization. Total mRNAs were also extracted from separated and unseparated OVCAR-5, MOVCAR-7, and MOVCAR-8 cell lines using an RNeasy Mini kit (QIAGEN) and reverse-transcribed to cDNAs using the SuperScript III Reverse Transcription Kit (Invitrogen). Levels of Lin28 and cyclin-dependent kinase (CDK) inhibitor mRNAs were measured by quantitative PCR with GAPDH as an internal standard using the following primers: […]
LIN28 F ([…])(SEQ ID NO: 34) and R ([…])(SEQ ID NO: 35); p15 F ([…])(SEQ ID NO: 36) and R ([…])(SEQ ID NO: 37); p16 F ([…])(SEQ ID NO: 38) and R ([…])(SEQ ID NO: 39); p18 F ([…])(SEQ ID NO: 40) and R ([…])(SEQ ID NO: 41); p19F ([…])(SEQ ID NO: 42) and R ([…])(SEQ ID NO: 43); p21 F ([…])(SEQ ID NO: 44) and R ([…])(SEQ ID NO: 45); p27 F ([…])(SEQ ID NO: 46) and R ([…])(SEQ ID NO: 47); CDK2 F ([…])(SEQ ID NO: 48) and R ([…])(SEQ ID NO: 49); CDK4 F ([…])(SEQ ID NO: 50) and R([…])(SEQ ID NO: 51); CDK6 F ([…])(SEQ ID NO: 52) and R ([…])(SEQ ID NO: 53); and GAPDH F ([…])(SEQ ID NO: 54) and R ([…])(SEQ ID NO: 55). Relative fold changes of Let-7c miRNAs and Lin28 and CDK inhibitor mRNAs were calculated as ΔCt or ΔΔCt (1) (n=3 for each primer).

OVCAR-5 cells [3] = experiment: Cell proliferation assay in monolayer (trypan blue count plus flow cytometry); assay type: cell-based, human; conditions: for proliferation of 3+/Ecad+ population / proliferation of 3+/Ecad− population: OVCAR-5, doxorubicin 60 nM, 1, 2 and 3 days
Experimental: OVCAR-5 cells were seeded in T-75 flasks at different densities (1.6×10^6, 1.2×10^6, 0.8×10^6 cells) with DMEM in 10% FCS, incubated for 24 h, and then treated with either PBS (control) or 60 nM doxorubicin for 24, 48, and 72 h. Cells seeded at 0.8×10^6 were also treated with cisplatin (0.2, 0.5, 1 μM) for 72 h. Harvested total viable cells were counted by trypan blue staining in a hemocytometer and stained with antihuman CD24-PE, anti-mouse/human CD44-APC/Cy7, anti-human Epcam-APC, and anti-human Ecadherin-FITC. Flow cytometry was performed to analyze for the absolute number of 3+/Ecad− and 3+/Ecad+ cells, which were calculated from the total viable cell numbers by analyzing the percentage of each population adjusted for seeding density (1×, 1.5×, and 2×, respectively).

OVCAR-5 cells [4] = experiment: Cell cycle analysis by flow cytometry; assay type: cell-based, human
Experimental: OVCAR-5 was grown to 50-60% confluency in DMEM with 10% FCS, untreated or treated with 100 μg/mL (714 nM) MIS or 60 nM doxorubicin for 48 h, harvested, and incubated with 10 μg/mL Hoechst 33342 at 37° C. for 30 min or 40 μg/mL propidium iodide (Sigma) at 25° C. for 30 min. Cells were stained with anti-human CD24-PE, anti-mouse/human CD44-APC/Cy7, anti-human Epcam-APC, and anti-human Ecadherin-FITC for 20 min at 4° C. and fixed in paraformaldehyde (1%), and the cell cycle was analyzed using the SORP LSRII.

3+/Ecad− OVCAR-5 cells = experiment: Colony formation assay of FACS-separated cells; assay type: cell-based, human; conditions: OVCAR-5 3+/Ecad− cells, 2000 cells in six-well plates, MIS 30 ug/ml or Doxorubicin 30 nM vs media, 14 days
Experimental: Colony formation was performed as previously described (4; wei 2010). 3+/Ecad− or 3−/Ecad+ cells separated from the ovarian cancer cell lines were treated with MIS or doxorubicin, cisplatin, or taxol, then plated on 6-well plates containing 2 ml/well complete DMEM medium at 500, 1000, or 2000 cells/well, and incubated for 14 days at 37° C., with a media change at day 7. Cells separated from primary ascites were plated on 12-well plates coated by metrigel or by agarose for colony formation assays at 25,000, 50,000, or 100,000 cells/well. Cells were seeded on 1:2 metrigel or in 0.4% agarose over a 0.8% layer, and incubated for 3-4 weeks at 37° C. At day 14 (cell lines) or day 21 (ascites), plates were washed with 1×PBS, and cells fixed with methanol. Resulting colonies were stained with Giemsa and the stained area captured and analyzed using Image J (Rasband, NIH, USA, http://rsb.info.nih.gov/ij/). Large colonies greater than 4 mm at 10× magnification were also counted and compared.

[5] = absolute cell number, listed as Doxorubicin
[6] = OVCAR-5, cisplatin 0.2, 0.5 and 1 μM, 3 d, absolute cell number

Structure (SMILES)	relative numbers of 3+ enriched population compared to 3− cells [1]	p15 expression ([2]; MOVCAR-7 and -8, 50 μg/mL MIS or 60 nM doxorubicin vs vehicle, 4 h)	other CDK inhibitors mRNA levels (p18, p19, p21, p27) ([2]; MOVCAR-7 or -8, 50 μg/mL MIS or 60 nM doxorubicin, 4 h)	kinases tested (CDK2, CDK4, CDK6) ([2]; transgenic cell lines treated with MIS or doxorubicin, data not shown)	proliferation of 3+/Ecad+ population (OVCAR-5 cells [3]; absolute cell number)	proliferation of 3+/Ecad− population (OVCAR-5 cells [3]; absolute cell number)	proliferation of 3+/Ecad+ population (OVCAR-5 cells [3]; [5])	proliferation of 3+/Ecad− population (OVCAR-5 cells [3]; [5])	proliferation of total viable cells (OVCAR-5 cells [3]; unseparated OVCAR-5, doxorubicin 60 nM, 1, 2 and 3 days)	proliferation of total viable cells (OVCAR-5 cells [3]; unseparated OVCAR-5, doxorubicin 60 nM, 1, 2 and 3 days, listed as Doxorubicin)	percentage of 3+/Ecad− cells in G1 (OVCAR-5 cells [4]; 100 μg/mL (714 nM) MIS or 60 nM doxorubicin, 48 h)	S or G2 distributions of either 3+Ecad− or 3−Ecad+ (OVCAR-5 cells [4]; doxorubicin 60 nM, 2 d)	colony formation of 3+/Ecad− cells (3+/Ecad− OVCAR-5 cells)	colony formation of 3+/Ecad− cells (3+/Ecad− OVCAR-5 cells; listed as Doxorubicin)	proliferation of total viable cells (OVCAR-5 cells [3]; OVCAR-5, cisplatin 0.2, 0.5 and 1 μM, 3 d)	proliferation of 3+Ecad− population (OVCAR-5 cells [3]; [6])	proliferation of 3−Ecad+ population (OVCAR-5 cells [3]; [6])	proliferation of 3+Ecad− population (OVCAR-5 cells [3]; OVCAR-5, cisplatin 0.2, 0.5 and 1 μM, 3 d, absolute cell number, listed as Cisplatin)
CC(=O)O[C@H]1C(=O)[C@@]2(C)[C@H]([C@H](OC(=O)c3ccccc3)[C@]3(O)C[C@H](OC(=O)[C@H](O)[C@@H](NC(=O)c4ccccc4)c4ccccc4)C(C)=C1C3(C)C)[C@]1(OC(C)=O)CO[C@@H]1C[C@@H]2O [paclitaxel]	increased	–	–	–	–	–	–	–	–	–	–	–	–	–	–	–	–	–
COc1cccc2c1C(=O)c1c(O)c3c(c(O)c1C2=O)C[C@@](O)(C(=O)CO)C[C@@H]3O[C@H]1C[C@H](N)[C@H](O)[C@H](C)O1 [doxorubicin, reference compound]	increased	decreased; also recorded: significant and opposite responses	did not regulate significantly	unaffected	decreased	paradoxically increased	inhibits proliferation	stimulates	significant inhibition	inhibits proliferation	decreased	did not statistically affect	significantly increased number of colonies; also recorded: significantly increases; also recorded: stimulated; also recorded: paradoxically increased; also recorded: significantly increased colony numbers	paradoxically increased significantly	–	–	–	–
N.N.[Cl][Pt][Cl] [cisplatin]	increased	–	–	–	–	–	–	–	–	–	–	–	–	–	inhibits proliferation	increased	inhibits proliferation	stimulates
